Measurements taken from patent US20160010155A1, “KCNK3 Channel Loss-of-Function Mutants in Familial and Idiopathic Pulmonary Arterial Hypertension” (THE TRUSTEES OF COLUMBIA UNIVERSITY IN THE CITY OF NEW YORK, priority 2013, published 2016).

Key:
TASK-1 = TASK-1 (Homo sapiens, UniProt O14649); settings: cited from earlier work
WT hKCNK3 channel = biological target: T1, WT hKCNK3 channel (Homo sapiens, UniProt O14649); assay: Whole-cell patch clamp of WT hKCNK3 channels expressed in COS-7 cells, drug application; assay type: cell-based; settings: 10 μM, current at +60 mV, pH 7.4
T1 construct: expressed in transfected cells; host or cells: COS-7
T1 sequence (O14649 whole entry): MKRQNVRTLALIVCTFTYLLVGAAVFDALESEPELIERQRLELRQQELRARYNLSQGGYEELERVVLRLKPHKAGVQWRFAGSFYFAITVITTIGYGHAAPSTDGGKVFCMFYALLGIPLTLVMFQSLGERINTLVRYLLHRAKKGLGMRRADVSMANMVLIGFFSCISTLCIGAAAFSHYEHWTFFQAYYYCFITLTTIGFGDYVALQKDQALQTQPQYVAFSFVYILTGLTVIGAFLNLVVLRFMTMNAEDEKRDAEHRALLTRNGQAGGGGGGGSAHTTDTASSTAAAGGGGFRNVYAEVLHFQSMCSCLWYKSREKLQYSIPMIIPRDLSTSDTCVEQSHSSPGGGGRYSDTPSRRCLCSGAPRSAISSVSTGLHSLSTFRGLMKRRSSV
Procedure: Functional analysis of the KCNK3 channel was performed to evaluate the functional effects of the rare genetic variants identified and to provide insight into the disease mechanism. pIRES-CD8-hKCNK3 was kindly provided by Florian Lesage (Institut de Pharmacologie Moléculaire et Cellulaire, Centre National de la Recherche Scientifique and Université de Nice Sophia Antipolis, Valbonne, France). hKCNK3 DNA was amplified and inserted into pcDNA 3.1 (+) vector (Invitrogen). Site-directed mutagenesis was performed using the QuikChange kit (Stratagene) and all constructs were sequenced before use. COS-7 cells (American Type Culture Collection) were grown under conventional conditions (5% CO2, DMEM (Gibco) +GlutaMax medium (Gibco) and 10% fetal bovine serum (Gibco)). […] The topology of the KCNK3 channel was based on the crystal structure of TWIK-1 channel^43 and alignment was performed using GeneDoc.^44 Membrane currents were measured with whole-cell patch-clamp procedures using Axopatch 200B amplifiers (Axon Instruments). […] Current measured at +60 mV was selected for comparison of constructs and drug actions. […] Analyzed data are shown as mean+/−S.E.M. Statistical significance was determined using one-way ANOVA. p<0.05 was considered statistically significant. […]

[1] = cited from earlier work

Chain of TASK-1 (O14649 whole entry): as above

In the case of `FC(F)(F)C(Cl)Br` (stereo not drawn) [Halothane, 2-bromo-2-chloro-1,1,1-trifluoroethane], the “effect on TASK-1 channel” value (TASK-1) is given as “activated”.
For `FC(F)OC(Cl)C(F)(F)F` (stereo not drawn) [Isoflurane, 2-chloro-2-(difluoromethoxy)-1,1,1-trifluoro-ethane], the “effect on TASK-1 channel” value (TASK-1) is listed as “activated”.
With `CCCCCc1ccc(/C=C/C(=O)Nc2cc(Cl)ccc2C(=O)O)cc1` [ONO RS-082] the “WT hKCNK3 current after application of drug” value (WT hKCNK3 channel) was “robust increase”.
In the case of `CCCCC[C@H](O)CC[C@@H]1[C@H]2Cc3cccc(OCC(=O)O)c3C[C@H]2C[C@H]1O` [Treprostinil], the “dose linearity of pharmacokinetics” value ([1]; continuous subcutaneous, dose range 1.25 to 125 ng/kg/min, two-compartment model) is given as “linear”, the excreted in feces ([1]; in vivo) is given as 13% and the “excreted in the urine as identified metabolites” value ([1]; in vivo) is given as 64%. For the same compound, the “excreted in the urine as unchanged drug” value ([1]; in vivo) was 4%, the half life ([1]; in vivo) was 4 h and the metabolism ([1]; in vivo) was “substantially metabolized by the liver”.
